{"source": "patent US9578878B2", "about": "“Antimicrobial efficacy of an oregano oil and caprylic acid blend” (Kemin Industries, Inc., priority 2014, dated 2017)", "key": {"C. albicans": {"test_system": "C. albicans", "assay": "Zone of inhibition assay", "format": "cell-based, Candida albicans", "conditions": "20 μL per 6 mm disk, 72 hrs, n = 3", "procedure": "For assays to find minimum inhibitory concentrations, all treatments were diluted in 10% DMSO and 0.5% Tween 80 to stabilize the samples.\nMicroorganisms Escherichia coli (ATCC #8739), Streptococcus sanguinis (ATCC #BAA-1455), Salmonella enteria subsp. enterica (ex Kauffmann and Edwards) Le Minor and Popoff serovar Typhimurium (ATCC #14028), Staphylococcus aureus (ATCC #6538), Pseudomonas aeruginosa (ATCC #9027), and Candida albicans (ATCC #10231) were obtained from a −80° C. internal stock culture. Aspergillus brasiliensis (ATCC #16404) was obtained from an internal stock solution culture stored at 4° C. E. coli, S. enterica S. aureus, and P. aeruginosa were grown in tryptic soy broth (TSB) and incubated at 37° C. for 24 h. S. sanguinis was grown in brain heart infusion broth (BHI). A. brasiliensis was plated on Sabourand dextrose agar (SDA) and incubated at 25° C. for 5-7 days. C. albicans was grown in Sabourand dextrose broth (SDB) and incubated at 25° C. for 48 h.\nA. brasiliensis was harvested by adding 18 mL sterile saline to the plate and agitating the mold from the agar with a sterile inoculating loop. The inoculum was collected upon agitation. All suspended microbes were diluted with the same type of broth media used to grow each organism until an inoculum in the range of 10^6 CFU/mL was achieved. The inoculum concentration was determined by plate count method. Each strain was identified by plating on the appropriate growth media, E. coli, S. aureus, and P. aeruginosa on tryptic soy agar (Bacto, BD Sciences, Manassas, Va.) and C. albicans and A. brasiliensis on Sabrouand dextrose agar, to ensure there was no contamination of the inoculum.\nA zone of inhibition assay was used for A. brasiliensis and C. albicans. SDA was used as the plated medium. Inocula at 10^5 cfu/ml were prepared and counted using a Petroff-Hausser counting chamber. The diameter of no growth around a 6 mm blank disk after incubation at 25° C. for 72 hrs was compared to the untreated control. 20 μL of treatment was applied to each disk in triplicate. 10% DMSO was used as the control."}, "[1]": {"test_system": "Pseudomonas aeruginosa (ATCC #9027)", "assay": "Preservative efficacy test (USP 51) in cold process cream, Example 1", "format": "cell-based", "conditions": "cream with 0.5% or 1.0% caprylic acid, after 2 days", "procedure": "(§1) Creams were prepared aseptically by spraying 70% isopropyl alcohol on all surfaces and labware. Carbomer 940 and coco caprylate were obtained from BPI Labs, Inc. (Evanston, Wyo.). Safflower and olive oils were purchased from Jedwards International, Inc. (Quincy, Mass.). The cream formulations were as follows: […]\n(§2) Preservative studies were completed at different times for caprylic acid and 10% carvacrol in caprylic acid. The negative and positive controls were designated at A, B for the caprylic acid study and 1, 2 for the addition of carvacrol in Table 1. The change in positive control ingredients was due to a shift in the preservative used for regular KPC formulations.\n(§3) DI water was added to a pre-weighed 250 mL beaker and mixed at 800 rpm using an overhead mixer (Eurostar power-b IKA-WERKE, Wilmington, N.C.) with a 3 blade […] impeller. Carbomer 940 was slowly added to the center of the mixing water. The mixture was hydrated for 30 minutes while covered with aluminum foil. Glycerin quickly followed by Lysofix were slowly added to the solution. After 2 minutes, safflower oil, olive oil, and coco caprylate were slowly added to the mixture at 1000 rpm. The solution was mixed for 30 minutes while covered with aluminum foil. Next the pH was measured and adjusted to 5.5 with a 33.3% sodium hydroxide solution. The mixing speed was increased to 1400 rpm. From time to time, it was necessary to scrape the sides of the beaker with a spatula to ensure that the cream became homogenized. When the cream appeared homogenized, the amount of preservative or treatment was added. After 2 minutes, the cream was weighed and water added to reach a mass balance.\n(§4) Microorganisms Escherichia coli (ATCC #8739), Staphylococcus aureus (ATCC #6538), Pseudomonas aeruginosa (ATCC #9027), and Candida albicans (ATCC #10231) were obtained from a −80° C. internal stock culture. Aspergillus brasiliensis (ATCC #16404) was obtained from an internal stock solution cultured stored at 4° C. E. coli, S. aureus, and P. aeruginosa were grown in tryptic soy broth (Bacto, BD Sciences, Manassas, Va.) and incubated at 37° C. for 24 h. A. brasiliensis was plated on Sabourand dextrose agar (Bacto, BD Sciences, Manassas, Va.) and incubated at 25° C. for 5-7 days. C. albicans was grown in Sabourand dextrose broth (Bacto, BD Sciences, Manassas, Va.) and incubated at 25° C. for 48 h.\n(§5) Pathogens in broth were harvested by centrifugation (2400 rpm, 20 minutes) and suspended in sterile saline. A. brasiliensis was harvested by adding 18 mL sterile saline to the plate and agitating the mold from the agar with a sterile inoculating loop. The inoculum was collected upon agitation. All suspended microbes were diluted with sterile saline until an inoculum in the range of 10^8 CFU/mL was achieved. The inoculum concentration was determined by plate count method. Each strain was identified by plating on the appropriate growth media, E. coli, S. aureus, and P. aeruginosa on tryptic soy agar (Bacto, BD Sciences, Manassas, Va.) and C. albicans and A. brasiliensis on Sabrouand dextrose agar, to ensure there was no contamination of the inoculum.\n(§6) Creams were plated according to the SOP^1 to ensure they were sterile. Each prepared cream was inoculated with 0.1 mL of inoculum per 10 g of sample to reach the targeted inoculated concentration of 6-log cfu/g. Samples were vortexed for 2 minutes. The inoculated creams were incubated at 25° C. […]"}, "[2]": {"test_system": "Staphylococcus aureus (ATCC #6538)", "assay": "Preservative efficacy test (USP 51) in cold process cream, Example 1", "format": "cell-based", "conditions": "cream with 0.5% or 1.0% caprylic acid, after 2 days", "procedure": "as §1, §2, §3, §4, §5, §6"}, "[3]": {"test_system": "Aspergillus brasiliensis (ATCC #16404)", "assay": "Preservative efficacy test (USP 51) in cold process cream, Example 1", "format": "cell-based", "conditions": "cream with caprylic acid, by the end of the study (28 days)", "procedure": "as §1, §2, §3, §4, §5, §6"}, "[4]": {"test_system": "Escherichia coli (ATCC #8739)", "assay": "Preservative efficacy test (USP 51) in cold process cream, Example 1", "format": "cell-based", "conditions": "cream with 0.5% or 1.0% caprylic acid, after 3 days", "procedure": "as §1, §2, §3, §4, §5, §6"}, "[5]": {"test_system": "Candida albicans (ATCC #10231)", "assay": "Preservative efficacy test (USP 51) in cold process cream, Example 1", "format": "cell-based", "conditions": "cream with 0.5% or 1.0% caprylic acid, after 2 days", "procedure": "as §1, §2, §3, §4, §5, §6"}}}
{"smiles": "CCCCCCCC(=O)O", "note": "[Caprylic Acid, octanoic acid]", "values": [{"measurement": "Inhibition Diameter, C. albicans", "setting": "C. albicans; 0.45% treatment", "value": 3.5, "unit": "mm"}, {"measurement": "Inhibition Diameter, C. albicans", "setting": "C. albicans; 0.9% treatment", "value": 4.5, "unit": "mm"}, {"measurement": "Inhibition Diameter, C. albicans", "setting": "C. albicans; 2.7% treatment", "value": 24.5, "unit": "mm"}, {"measurement": "Log reduction of P. aeruginosa", "setting": "[1]", "value": 5, "unit": "log"}, {"measurement": "Log reduction of S. aureus", "setting": "[2]", "value": 5, "unit": "log"}, {"measurement": "Log reduction of A. brasiliensis", "setting": "[3]", "value": 2, "unit": "log"}, {"measurement": "Log reduction of E. coli", "setting": "[4]", "value": 5, "unit": "log"}, {"measurement": "Log reduction of C. albicans", "setting": "[5]", "value": 5, "unit": "log"}]}
